Test results taken from patent publication US20070128270A1.
In brackets after ≈: the same amount, converted by molar mass.

Columns and labels:
[1] = Accelerated stability of capsules, HPLC potency and impurities; format: physicochemical; settings: Initial
Description: The accelerated stability of the capsules of Examples 1 and 2 was studied. The capsules were packaged in HDPE bottles and stored at 40° C./75% RH and under ICH option 2 light condition. The samples were assayed by HPLC for potency and impurities and by dissolution apparatus. […] No change in dissolution was also observed under all conditions.

physchem = format: physicochemical
From the text: In fact, according to a preferred embodiment, the at least one surfactant is a blend of surfactants, more preferably a blend of sodium lauryl sulfate and polysorbate 80 (Tween 80). In a particularly preferred embodiment, the pharmaceutically acceptable additives further comprise at least one solubilizer. Preferably the solubilizer is povidone.

With `CNC(=O)c1c(-c2ccc(F)cc2)oc2cc(N(CCO)S(C)(=O)=O)c(C3CC3)cc12` the “Impurity (%) RRT: 1.06” value [1] was less than 0.05%, the “Impurity (%) RRT: 1.45” value [1] was 0.13% and the “Impurity (%) RRT: 1.79” value [1] was 0.05%. The “Impurity (%) RRT: 1.84” value [1] was 0.07%, the “Strength (%)” value [1] was 99.2% and the “solubility in aqueous medium at gastrointestinal pHs” value (physchem) was “insoluble”. The solubility (physchem; Solubility) was 20 µg/mL (≈ 44.8 µM).
